Data published in patent publication US9072728B2, “Treatment of severe distal colitis” (priority 2003, dated 2015).

How the values were obtained:
[1] = system: human PMN transmigration across intestinal T84 cell monolayers; experiment: PMN transmigration across intestinal T84 cell monolayers (in-vitro model of colitis); format: cell-based; conditions: for attenuation of PMN transepithelial migration: FIG. 2A, 2B
Source text: Recruitment of polymorphonuclear neutrophils (PMN's) across intestinal epithelia and into the lumen, resulting in mucosal ulcerations or frank crypt abscesses, occurs in a broad spectrum of infectious, inflammatory, and allergic diarrheal states, including patients with inflammation of surgically constructed ileal reservoirs (“pouchitis”). The transmigration of PMN's across the epithelial barrier represents the pathognomonic feature of acute and active chronic intestinal inflammation. Since CLT has been previously shown to inhibit PMN chemotaxis in-vitro, this study tested if CLT may also be efficacious in attenuating PMN transmigration in an established in-vitro model of colitis using intestinal T84 cell monolayers.
The efficacy of CLT was compared to other antibiotic (metronidazole) and steroid (prednisone) agents that currently represent the standards of care for the topical or systemic therapy of pouchitis. […] […] As such, topical CLT treatment represents an attractive alternative for patients whose pouchitis disease has proven to be refractory to standard antibiotic or anti-inflammatory regimens. CLT may inhibit PMN transmigration by inhibiting the operation of plasma membrane K^+ or Ca^++ channels that are likely required to accommodate the volume changes necessary for PMN transmigration through epithelial intercellular tight junctions.

[2] = system: IL-8 secretion in Calu-3 cells; experiment: IL-8 in basolateral supernatants of Calu-3 cells (ELISA); format: cell-based; conditions: for inhibition of secreted IL-8: Calu-3 cells stimulated with Salmonella, 30 μM test compound, 5 hours, FIG. 4
Procedure: Calu-3 cells were plated at subconfluency onto Costar inserts (3.0 μm membrane pore size) using standard techniques. After 24 hours, the apical well media was aspirated, and the Calu-3 cells were permitted to grow at the air/media interface. Basolateral media was changed every 2-3 days until they had grown into confluent monolayers (typically 7-10 days). Pathogenic Salmonella typhi were grown in Luria's both overnight at 37° C. (on the night prior to experimentation). The bacteria were washed twice in approximately 20 ml Hanks Balanced Salt Solution (HBSS). Prior to use, bacteria were spun down and resuspended in a total of 10 ml HBSS.
On the day of experimentation, inserts were washed in HBSS and placed into wells containing HBSS with either vehicle (0.0015% ethanol) or 30 μM of specific imidazole or non-imidazole containing test compound (all compounds were diluted from 20 mM working stock). 200 μL of bacteria were then loaded onto the apical compartment, and the cells were allowed to incubate for 5 hours. The basolateral buffer solutions from each insert were subsequently aspirated into eppendorfs and stored at −20° C. Calu-3 filters were cut and rotated for 30 minutes in 250 μL of lysis buffer [10 mL of PBS containing 1 Complete Protease Inhibitor Cocktail Tablet (Roche Pharmaceuticals) tablet and […]] at 4° C., spun at 14,000 for 20 minutes, and the clarified supernatant was stored at −20° C. Supernatant and lysate IL-8 protein content was measured by ELISA using standard techniques.

[3] = system: fecal lactoferrin, a marker of white blood cell excretion (PMN transmigration); experiment: Fecal lactoferrin in pouchitis patients treated with CLT suppositories; format: in vivo, human; conditions: in 6 of 8 subjects studied; rectal suppository
Procedure: (§1) In this study, subjects were treated with escalating doses of study drug: Step A (500 mg rectal suppositories applied twice daily); Step B (750 mg rectal suppositories applied twice daily); Step C (1,500 mg delivered twice daily). Few parameters were measured including fecal lactoferrin, a marker of white blood cell excretion, to assess the effects of topical CLT therapy on PMN transmigration in patients with pouchitis. This assay has been previously validated as a quantitative biochemical measure of PMN transmigration in patients with infectious colitis and inflammatory bowel disease.

[4] = Serum CLT levels after rectal CLT suppositories (HPLC assay); format: in vivo, human
Procedure: (§2) The safety and efficacy of topical CLT therapy was also evaluated (delivered as a rectal suppository) in pediatric and adult patients with active pouchitis. In this study, subjects progressed through three escalating dosing levels: Step A (500 mg rectal suppositories applied twice daily); Step B (750 mg rectal suppositories applied twice daily); Step C (1,500 mg delivered twice daily). Serum levels (measured using a previously validated HPLC assay) were obtained within 3 to 6 hours after administering the morning (8 AM) dose of CLT and are presented in Table 2.

[5] = system: pediatric and adult patients with active pouchitis; experiment: Safety and clinical outcome of rectal CLT suppositories, open-labeled dose escalating trial; format: in vivo, human
Procedure: as §2
Rectal CLT delivered as a suppository, toxicity.
as §1

IL-8 within Calu-3 cells = experiment: IL-8 in Calu-3 cell lysates (ELISA); format: cell-based; conditions: FIG. 5
[6] = oral CLT; mice, rats, and rabbits; cited from earlier work
[7] = Safety laboratory data for CLT retention enemas; format: in vivo, human; conditions: change from baseline; retention enemas daily 3500-4000 mg; n=9
Procedure: In addition to efficacy data, safety data was also gathered for the use of CLT in retention enemas administered daily in a dose of 3500-4000 mg in the same group of patients. The following parameters were measured: urea nitrogen, Creatinine, aspartate aminotransferase (AST or SGOT), alanine aminotransferase (ALT or SGPT), alkaline phosphatase (Alk Phos), Total Bilirubin, Direct Bilirubin, Albumin, and Hematocrit.

[8] = cited from earlier work
[9] = cited from earlier work; remark: listed apart in the source
[10] = cited from earlier work; remark: listed apart in the source
[11] = system: IL-8 secretion from cultured intestinal (T84) epithelia; experiment: IL-8 secretion from cultured intestinal epithelial T84 cells; format: cell-based; conditions: T84 cells 30 minutes with CLT (30 μM) prior to stimulation with PMA, TNF or Salmonella typhimurium; each agonist; FIG. 3
Procedure: Intestinal epithelial cells play an active role in the mediation of intestinal inflammation through the production and regulated secretion of a variety of pro-inflammatory cytokines including IL-8. […] In these experiments, cultured intestinal epithelial T84 cells were incubated for 30 minutes with CLT (30 μM) prior to stimulation with either the protein kinase C stimulator PMA, the pro-inflammatory cytokine TNF, or a strain of pathogenic Salmonella typhimurium.

[12] = oral CLT 60-90 mg/Kg body weight/day; cited from earlier work
[13] = oral CLT, experimental animals; cited from earlier work
[14] = PMN's and T84 cells incubated with 30 μM of study drug for 30 minutes
[15] = after application of one vaginal tablet

SMILES: C[C@]12C=CC(=O)C=C1CC[C@@H]1[C@@H]2C(=O)C[C@@]2(C)[C@H]1CC[C@]2(O)C(=O)CO [prednisone]
- attenuation of PMN transepithelial migration [1, 14]: no attenuation

SMILES: c1c[nH]cn1 [imidazole]
- inhibition of secreted IL-8 [2]: Considerably less inhibition

SMILES: CCC(C)n1ncn(-c2ccc(N3CCN(c4ccc(OCC5COC(Cn6cncn6)(c6ccc(Cl)cc6Cl)O5)cc4)CC3)cc2)c1=O (stereo not shown) [itraconazole]
- inhibition of secreted IL-8 [2]: No inhibition

SMILES: Cc1ncc([N+](=O)[O-])n1CCO [metronidazole]
- inhibition of PMN transmigration ([1]; PMN's and T84 cells incubated with 30 μM of study drug for 30 minutes, FIG. 2B): 30-40%

SMILES: OC(Cn1cncn1)(Cn1cncn1)c1ccc(F)cc1F [fluconazole]
- inhibition of secreted IL-8 [2]: Considerably less inhibition

SMILES: Clc1ccccc1C(c1ccccc1)(c1ccccc1)n1ccnc1 [CLT, clotrimazole]
- reduction of PMN excretion (fecal lactoferrin) [3]: 77%
- Serum CLT levels, Step A ([4]; 500 mg rectal suppositories twice daily, 3 to 6 hours after morning dose, one line per subject): below the level of detection
- systemic absorption from ileal pouches (measured as serum CLT concentration) ([4]; rectal suppository): generally poor systemic absorption
- serum CLT level at the time of renal diagnosis ([4]; subject two, CLT suppositories): 0.08 µM
- adverse effect of CLT therapy ([5]; subject one): no significant adverse effect
- changes in urinary sediment or serum BUN or creatinine values ([5]; subjects other than ZP): No other subjects participating in the study demonstrated any significant changes
- tolerability ([5]; topical CLT delivered as a rectal suppository, pediatric and adult patients): generally well tolerated
- effect on intracellular IL-8 (IL-8 within Calu-3 cells; PMA stimulation): no effect
- decrease in IL-8 in Calu-3 cell lysates (IL-8 within Calu-3 cells; Salmonella stimulation, 30 μM test compound, 5 hours): virtually no decrease
- LD50 [6]: 700-1,000 mg/Kg
- ALBUMIN, Change, MAX [7]: 1.1 G/DI
- ALBUMIN, Change, MEAN [7]: 0.1 G/DI
- ALBUMIN, Change, MEDIAN [7]: 0.0 G/DI
- ALBUMIN, Change, MIN [7]: −0.4 G/DI
- ALKALINE PHOSPHATASE, Change, MAX [7]: 37.0 U/L
- ALKALINE PHOSPHATASE, Change, MEAN [7]: −2.4 U/L
- ALKALINE PHOSPHATASE, Change, MEDIAN [7]: 1.0 U/L
- ALKALINE PHOSPHATASE, Change, MIN [7]: −60.0 U/L
- CREATININE, Change, MAX [7]: 0.1 mg/dL
- CREATININE, Change, MEAN [7]: -0.0 mg/dL
- CREATININE, Change, MEDIAN [7]: -0.1 mg/dL
- CREATININE, Change, MIN [7]: -0.2 mg/dL
- DIRECT BILIRUBIN, Change, MAX [7]: 0.1 mg/dL
- DIRECT BILIRUBIN, Change, MEAN [7]: -0.0 mg/dL
- DIRECT BILIRUBIN, Change, MEDIAN [7]: 0.0 mg/dL
- DIRECT BILIRUBIN, Change, MIN [7]: -0.1 mg/dL
- HEMATOCRIT, Change, MAX [7]: 5.9%
- HEMATOCRIT, Change, MEAN [7]: −0.5%
- HEMATOCRIT, Change, MEDIAN [7]: 0.5%
- HEMATOCRIT, Change, MIN [7]: −4.7%
- SGOT (AST), Change, MAX [7]: 8.0 U/L
- SGOT (AST), Change, MEAN [7]: −2.2 U/L
- SGOT (AST), Change, MEDIAN [7]: −1.0 U/L
- SGOT (AST), Change, MIN [7]: −16.0 U/L
- SGPT (ALT), Change, MAX [7]: 8.0 U/L
- SGPT (ALT), Change, MEAN [7]: 0.9 U/L
- SGPT (ALT), Change, MEDIAN [7]: 0.0 U/L
- SGPT (ALT), Change, MIN [7]: −6.0 U/L
- TOTAL BILIRUBIN, Change, MAX [7]: 0.2 mg/dL
- TOTAL BILIRUBIN, Change, MEAN [7]: -0.0 mg/dL
- TOTAL BILIRUBIN, Change, MEDIAN [7]: 0.0 mg/dL
- TOTAL BILIRUBIN, Change, MIN [7]: -0.5 mg/dL
- UREA NITROGEN (BUN), Change, MAX [7]: 4.0 mg/dL
- UREA NITROGEN (BUN), Change, MEAN [7]: 0.1 mg/dL
- UREA NITROGEN (BUN), Change, MEDIAN [7]: 0.0 mg/dL
- UREA NITROGEN (BUN), Change, MIN [7]: -5.0 mg/dL
- serum CLT levels on continued therapy ([8]; after one week of continued daily therapy with oral tablets): seemed to decline
- adverse effect after first dose ([8]; normal volunteers, oral CLT in oil form, first dose of 1,000 mg): severe vertigo
- time to disappearance of all neurological symptoms after discontinuing CLT therapy ([8]; normal volunteers, oral CLT in oil form): ≤ 24 hours
- inhibition of secreted IL-8 [2]: High level of IL-8 inhibition
- IL-8 in supernatants, time-course ([2]; at 5 hours, Calu-3 cells pretreated, FIGS. 6 and 7): no IL-8 in the supernatants
- serum levels ([9]; adults, oral dose of 200 mg of CLT): 200 to 350 ng/mL
- drug excreted unchanged in the urine ([9]; oral CLT): only a small fraction
- route of elimination ([9]; oral CLT): largely in the feces via biliary excretion
- blood levels in oil solvent relative to tablet forms ([9]; oral, drug delivered in an oil solvent vs tablet): 3-4 times higher
- side effects of mucosal preparations ([10]; 1% vaginal cream, 100 mg and 500 mg tablets): minimal side effects
- concurrent plasma levels [10, 15]: lower than 0.01 μg/ml
- time fungicidal concentrations of CLT detected in vaginal fluid [10, 15]: up to 3 days
- central nervous system abnormalities ([10]; topical application of CLT): No central nervous system abnormalities
- IL-8 secretion [11]: inhibited completely
- patients reporting gastrointestinal complaints (nausea, vomiting, and diarrhea) [12]: 13%
- patients who developed chemical cystitis [12]: 4.4%
- patients who developed contact dermatitis [12]: 2.2%
- patients who found the therapy intolerable [12]: 6.5%
- patients who tolerated CLT therapy moderately well [12]: 18.5%
- patients who tolerated CLT therapy well [12]: 64%
- subacute and chronic toxicity, organs involved [13]: liver (degenerative changes) and the adrenal gland (increased fat deposition)
- time to reversal of liver and adrenal changes after discontinuation of therapy [13]: ≤ 6 months
- attenuation of PMN transepithelial migration [1, 14]: more potent
- inhibition of transepithelial migration ([1]; incubation of T84 monolayers alone with CLT, prior to layering of untreated PMN's, compared with PMN pretreatment, FIG. 1): equal or greater extent
- PMN transmigration ([1]; pretreatment of PMN's alone with CLT (30 μM) for 30 minutes, FIG. 1): inhibited significantly
